Data: PubChem BioAssay AID1919013 (Molecular Pharmacology Branch, DTP, NCI, 2023)
Several values for one entry are separate records, joined by “and”; a condition that tells them apart may be missing. Equal values may be shown once.

System: LG0703-F498-PDC complex spheroid growth
Experiment: Anticancer human tumor LG0703-F498-PDC patient-derived lung adenocarcinoma cell line growth inhibition [AhR]
Conditions: for viability, T/C: stronger effect = lower value
Excerpt: Multicellular complex tumor spheroid response to aryl hydrocarbon receptor antagonists in combination with a variety of drugs and investigational agents in selected tumor cell lines
The current study was undertaken to assess response to aryl hydrocarbon receptor antagonists in combination with standard-of-care drugs and investigational agents in solid tumor complex spheroid models. Complex spheroids include a stromal component modeled by human endothelial cells (HUVEC) and fibroblasts modeled by human mesenchymal stem cells (MSCs). The concentration ranges selected for each drug and investigational agent were based upon clinically achievable concentrations if the clinical Cmax of the agent was known.
Compounds. The drugs and investigational agents: BAY 2416964 (NSC825713), GNF351 (NSC835774), CH-223191 (NSC835775), CPI-455 (NSC825282), aza-TdCyd (NSC777586), decitabine (NSC127716), belinostat (NSC758774), entinostat (NSC756642), pevonedistat (NSC761192), tazemetostat (NSC777109), talazoparib (NSC765396), olaparib (NSC753686), selinexor (NSC780203), nedisertib (M3814, NSC802822), bortezomib (NSC756655), venetoclax (NSC766270), doxorubicin (NSC123127), elimusertib (BAY189344, NSC800525), ceralasertib (AZD6738, NSC777638), TAK-243 (NSC785004), alisertib (NSC759677), etoposide (NSC141540), topotecan (NSC609699), eribulin (NSC707389), gemcitabine (NSC613327), carboplatin (NSC241240), cisplatin (NSC119875), and SN-38 (NSC673596) were obtained from the National Cancer Institute (NCI) Developmental Therapeutics Program Chemical Repository (32). The FDA-approved anticancer drug set is available from the Developmental Therapeutics Program at https://dtp.cancer.gov/organization/dscb/obtaining/available plates.htm. […] The stock solutions were prepared in dimethyl sulfoxide (DMSO, Sigma-Aldrich, St. Louis, MO, cat. D2650), except for the platinum compounds which were prepared in saline (Quality Biological, Gaithersburg, MD, cat. 114-055-101), at 800-fold the tested concentration and stored at -70 degrees C prior to their use. All drugs and investigational agents were tested over a range starting from a high concentration at or near the clinical Cmax and decreasing in half-log increments. If the clinical Cmax for an agent had not been determined, the highest concentration tested was 10 microM (Table 1).
Cell Culture. All cells were maintained in an incubator at 37 degrees C and 5% CO2 with 95% humidity. The PDC lines were cultured according to standard operating procedures established by the NCI PDMR (https://pdmr.cancer.gov). Briefly, all PDCs were thawed and cultured in Matrigel-coated flasks prepared with a working solution of 1X Ham's F-12 nutrient mix, without supplementation (Invitrogen, Waltham, MA, cat. 11765054), 100 U/mL penicillin-streptomycin (Invitrogen, cat. 15140122), and 2.5% Matrigel (Corning Inc., Corning, NY, cat. 354248) for the first three passages. All PDCs were cultured in complete DMEM/F-12 media containing advanced DMEM/F-12 (Invitrogen, cat. 12634028), 4.9% defined fetal bovine serum, heat inactivated (HyClone Laboratories Inc., Logan, UT, cat. SH30070.03HI), 389 ng/mL hydrocortisone (Sigma-Aldrich, cat. H4001), 9.7 ng/mL human EGF recombinant protein (Invitrogen, cat. PHG0313), 23.4 microg/mL adenine (Sigma-Aldrich, cat. A2786), 97.3 U/mL penicillin-streptomycin (Invitrogen, cat. 15140122), 1.9 mM L-glutamine (Invitrogen, cat. 25030081), and 9.7 microM Y-27632 dihydrochloride (Tocris Bioscience, Bristol, United Kingdom, cat. 1254). The PDCs were cultured in complete DMEM/F12 media without 10 microM Y-27632 dihydrochloride for at least two passages prior to the screen. The established cell lines NCI-H1341 and […] were cultured in DMEM/F-12, HEPES (Invitrogen, cat. 11330032), 5% defined fetal bovine serum (HyClone Laboratories Inc., cat. SH30070.03), ITS premix universal culture supplement [insulin (5 microg/mL), transferrin (5 microg/mL), and selenious acid (5 ng/mL)] […]
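Further: luminescence taken as a proxy for viable cell amount.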
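Wherever viability, T/C is given: percent of DMSO vehicle control where 100% means growth equal to vehicle.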

| SMILES | IC50 (curve of compound) | viability, T/C (compound 0.0316 µM) | viability, T/C (compound 0.1 µM) | viability, T/C (compound 0.316 µM) | viability, T/C (compound 1 µM) | viability, T/C (compound 3.16 µM) | viability, T/C (compound 10 µM) | other results |
| --- | --- | --- | --- | --- | --- | --- | --- | --- |
| CC(C)CC(NC(=O)C(Cc1ccccc1)NC(=O)c1cnccn1)B(O)O (stereo not given) | 0.00429 µM and 0.0055 µM and 0.00288 µM |  |  |  |  |  |  | viability, T/C (compound 0.000949 µM): 99.7% and 97.7% and 92.7%; viability, T/C (compound 0.003 µM): 69.5% and 94.8% and 48.4%; viability, T/C (compound 0.00949 µM): 6.8% and 9.74% and 2.07%; viability, T/C (compound 0.03 µM): 0.44% and 0.8% and 0.23%; viability, T/C (compound 0.0949 µM): 0.15% and 0.2% and 0.16%; viability, T/C (compound 0.3 µM): 0.19% and 0.35% and 0.18% |
| CC(C)c1c(-c2ccccc2)nc2c(C#N)c[nH]n2c1=O | > 10 µM | 101% and 99.1% and 108% | 96.1% and 98.3% and 103% | 105% and 107% and 103% | 87% and 102% and 104% | 88.2% and 91.2% and 91.7% | 99.6% and 90.7% and 93.6% |  |
| CC(CO)NC(=O)c1cc(-c2ccc(Cl)cc2)nn(-c2cnn(C)c2)c1=O (stereo not given) |  |  |  |  | 87.9% [middle of 21 runs] |  | 77% [middle of 19 runs] | IC50 (compound alone, run of 05/31/2022): > 10 µM |
| CC1(C)CCC(CN2CCN(c3ccc(C(=O)NS(=O)(=O)c4ccc(NCC5CCOCC5)c([N+](=O)[O-])c4)c(Oc4cnc5[nH]ccc5c4)c3)CC2)=C(c2ccc(Cl)cc2)C1 | 9.24 µM and 6.4 µM and 6.39 µM | 100% and 112% and 101% | 105% and 99.6% and 110% | 94.1% and 105% and 96.2% | 98.5% and 101% and 95.5% | 98.2% (2×) and 102% | 46.4% and 19.4% and 17.5% |  |
| CC1COCCN1c1cc(-c2ccnn2C)c2ccnc(-c3ccn[nH]3)c2n1 (stereo not given) | 0.597 µM and 0.726 µM and 0.723 µM | 106% and 82.9% and 90.9% | 86.3% and 83.7% and 85% | 62.1% and 66.7% and 69.9% | 40.7% and 43.3% and 42% |  |  | viability, T/C (compound 0.00316 µM): 97.6% and 98.2% and 105%; viability, T/C (compound 0.01 µM): 102% and 105% and 98.7% |
| CC1COCCN1c1cc(C2(S(C)(=N)=O)CC2)nc(-c2ccnc3[nH]ccc23)n1 (stereo not given) | > 10 µM | 91% and 100% and 107% | 108% and 96.2% and 104% | 87.9% and 110% and 96.5% | 97.9% and 98.4% and 97.6% | 87.5% and 110% and 95.1% | 65.4% and 71% and 64.8% |  |
| CCN(c1cc(-c2ccc(CN3CCOCC3)cc2)cc(C(=O)NCc2c(C)cc(C)[nH]c2=O)c1C)C1CCOCC1 | > 3 µM |  |  |  |  |  |  | viability, T/C (compound 0.00949 µM): 102% and 110% and 103%; viability, T/C (compound 0.03 µM): 111% and 109% and 112%; viability, T/C (compound 0.0949 µM): 103% and 98.8% and 101%; viability, T/C (compound 0.3 µM): 99.3% and 99% and 107%; viability, T/C (compound 0.949 µM): 122% and 101% and 121%; viability, T/C (compound 3 µM): 106% and 110% and 113% |
| CC[C@@]1(O)C(=O)OCc2c1cc1n(c2=O)Cc2cc3c(CN(C)C)c(O)ccc3nc2-1 | > 0.1 µM | 85.8% and 111% and 87.9% | 68.1% and 69.4% and 73.8% |  |  |  |  | viability, T/C (compound 0.000316 µM): 104% and 108% and 106%; viability, T/C (compound 0.001 µM): 112% and 105% and 93.5%; viability, T/C (compound 0.00316 µM): 100% and 102% and 95.9%; viability, T/C (compound 0.01 µM): 90.5% and 93.7% and 90% |
| CCc1c2c(nc3ccc(O)cc13)-c1cc3c(c(=O)n1C2)COC(=O)[C@]3(O)CC | 0.0674 µM and 0.111 µM and 0.123 µM |  |  |  |  |  |  | viability, T/C (compound 0.000949 µM): 95.1% and 92.3% and 101%; viability, T/C (compound 0.003 µM): 87% and 101% and 106%; viability, T/C (compound 0.00949 µM): 95.9% and 86.3% and 92.1%; viability, T/C (compound 0.03 µM): 62.3% and 66% and 69.1%; viability, T/C (compound 0.0949 µM): 47.3% and 57% and 58.6%; viability, T/C (compound 0.3 µM): 30.2% and 32.5% and 34.4% |
| COc1cc(C2c3cc4c(cc3C(OC3OC5COC(C)OC5C(O)C3O)C3COC(=O)C23)OCO4)cc(OC)c1O (stereo not given) | > 10 µM | 95.8% and 105% and 103% | 109% and 113% and 98.3% | 99.8% and 102% and 96.6% | 86.4% and 106% and 110% | 80.5% and 96.5% and 87.8% | 64.3% and 75.6% and 70.2% |  |
| COc1cc(Nc2ncc3c(n2)-c2ccc(Cl)cc2C(c2c(F)cccc2OC)=NC3)ccc1C(=O)O | 5.98 µM and 5.06 µM and 6.78 µM | 87.2% and 100% and 93.8% | 81% and 83.4% and 82.2% | 67.8% and 64.2% and 72.7% | 76.2% and 77.1% and 73.1% | 67% and 61% and 63.3% | 37.5% and 36.6% and 41.4% |  |
| COc1ccc([C@@H](O)c2cc(-c3ncnc4cc(N5CCOCC5)ccc34)c(F)cc2Cl)nn1 | 5.77 µM and 5.83 µM and 5.19 µM | 97% and 89.7% and 103% | 94.4% and 103% and 102% | 94.6% and 103% and 100% | 93.6% and 93.9% and 90% | 75.6% and 76.3% and 67.8% | 26.7% and 26.9% and 26.5% |  |
